For test [1], the target named is T1, human A3 adenosine receptor (Homo sapiens, UniProt P0DMS8).
T1 sequence (P0DMS8 1-318): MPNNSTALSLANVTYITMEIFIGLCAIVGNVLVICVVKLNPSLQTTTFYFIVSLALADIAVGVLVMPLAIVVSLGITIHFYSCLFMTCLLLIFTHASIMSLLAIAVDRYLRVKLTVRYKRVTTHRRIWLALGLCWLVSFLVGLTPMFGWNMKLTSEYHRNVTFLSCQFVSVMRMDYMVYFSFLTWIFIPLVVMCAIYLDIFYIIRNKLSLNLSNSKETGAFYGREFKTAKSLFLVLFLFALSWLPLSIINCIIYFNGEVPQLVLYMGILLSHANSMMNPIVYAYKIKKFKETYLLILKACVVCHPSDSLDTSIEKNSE
Further details: expressed in transfected cells; host or cells: CHO cells. The note with it: relative to 10 μM Cl-IB-MECA, data from literature (footnotes c, d, e, f); cited from earlier work.

Test [2] concerns the target T2, human A2B adenosine receptor (hA2BAR) (Homo sapiens, UniProt P29275).
T2 sequence (P29275 1-332): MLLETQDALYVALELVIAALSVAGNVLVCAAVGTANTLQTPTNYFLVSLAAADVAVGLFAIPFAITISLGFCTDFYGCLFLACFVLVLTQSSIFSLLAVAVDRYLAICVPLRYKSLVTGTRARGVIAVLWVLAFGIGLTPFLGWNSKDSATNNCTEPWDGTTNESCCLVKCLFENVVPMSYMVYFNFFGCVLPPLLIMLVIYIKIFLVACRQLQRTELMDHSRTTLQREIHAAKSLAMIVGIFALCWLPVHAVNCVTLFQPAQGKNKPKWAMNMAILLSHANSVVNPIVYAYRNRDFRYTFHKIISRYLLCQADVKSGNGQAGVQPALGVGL
The following applies: data from literature (footnotes c, f, h); cited from earlier work.

The target of test [3] is T3, human A1 receptors (Homo sapiens, UniProt P30542).
T3 construct: expressed in transfected cells
T3 sequence (P30542 1-326): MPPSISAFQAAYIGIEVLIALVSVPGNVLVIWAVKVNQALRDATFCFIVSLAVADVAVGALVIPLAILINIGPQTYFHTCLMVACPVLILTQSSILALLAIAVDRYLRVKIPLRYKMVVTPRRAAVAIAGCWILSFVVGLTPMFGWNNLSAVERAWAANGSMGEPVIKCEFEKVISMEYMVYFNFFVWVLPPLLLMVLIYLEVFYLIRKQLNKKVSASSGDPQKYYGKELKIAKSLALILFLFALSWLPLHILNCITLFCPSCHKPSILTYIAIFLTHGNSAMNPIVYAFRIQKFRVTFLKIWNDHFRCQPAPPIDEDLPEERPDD

Test [4] deals with T4, rat A3 adenosine receptor (Rattus norvegicus, UniProt P28647).
T4 construct: expressed in transfected cells; host or cells: CHO cells
T4 sequence (P28647 1-320): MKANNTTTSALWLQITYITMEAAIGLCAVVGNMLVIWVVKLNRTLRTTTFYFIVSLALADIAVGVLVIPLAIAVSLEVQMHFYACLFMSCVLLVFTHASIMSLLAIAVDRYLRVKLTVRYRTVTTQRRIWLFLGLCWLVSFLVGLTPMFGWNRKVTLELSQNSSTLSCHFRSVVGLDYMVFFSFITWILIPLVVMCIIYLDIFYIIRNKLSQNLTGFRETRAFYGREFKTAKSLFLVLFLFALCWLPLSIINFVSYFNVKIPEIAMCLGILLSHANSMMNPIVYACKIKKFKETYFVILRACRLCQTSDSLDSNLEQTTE

Test [5] deals with T4, rat A3 adenosine receptor. The test can be described thus: Binding at rat A3 adenosine receptor ([125I]I-AB-MECA, CHO cell membranes). The following applies: rat A3 AR in CHO cells; unit nM printed in b194 only; read-out: Ki(rA3AR).
Method: (§1) Striatal and forebrain tissues from Wistar rats were homogenized in ice-cold 50 mM Tris-HCl buffer, pH 7.4, using an electric homogenizer. The homogenate was centrifuged at 20,000 g for 10 min at 4° C., and the pellet was washed in fresh buffer. The final pellet was stored at −80° C. until the binding experiments. The protein concentration was measured using the Bradford assay. […] The mixtures were incubated at 37° C. for 60 min. […] Filters were washed three times with 9 ml ice-cold buffer. Radioactivity was determined in a Beckman 5500B γ-counter. Statistical analysis Binding and functional parameters were calculated using Prism 5.0 software (GraphPAD, San Diego, Calif., USA). IC50 values obtained from competition curves were converted to Ki values using the Cheng-Prusoff equation.
Test [6] has as its target T1, human A3 adenosine receptor. Further details: expressed in transfected cells; host or cells: CHO cells. The following applies: data from literature (footnotes c, d, e, f); read-out: Ki(hA3AR); cited from earlier work.
In test [7] the target is T5, human A2A receptors (Homo sapiens, UniProt P29274).
T5 construct: expressed in transfected cells

Test [8] concerns the target T3, human A1 receptors. The test can be described thus: Binding at human A1 adenosine receptor ([3H]R-PIA, CHO cell membranes). The note with it: mean ± s.e.m., n = 3-5, read-out: Ki(hA1AR).
Method: (§2) Binding assays at the A1 and A2A receptors. […] Reaction was terminated by filtration with GF/B filters.
(§3) Statistical analysis Binding and functional parameters were calculated using Prism 5.0 software (GraphPAD, San Diego, Calif., USA). IC50 values obtained from competition curves were converted to Ki values using the Cheng-Prusoff equation.
Test [9] concerns the target T5, human A2A receptors. The test can be described thus: Binding at human A2A adenosine receptor ([3H]CGS21680, HEK-293 cell membranes). The note with it: [3H]CGS 21680; for Ki: mean ± s.e.m., n = 3-5, read-out: Ki(hA2AAR).
Method: as §2, §3
Test [10] addresses T1, human A3 adenosine receptor. The test can be described thus: Cyclic AMP accumulation assay (inhibition of forskolin-stimulated cAMP), CHO cells expressing human A3 adenosine receptor. The following applies: 10 μM, relative to 10 μM Cl-IB-MECA.
Method: (§4) The cyclic AMP accumulation assay was performed as follows. Intracellular cyclic AMP levels were measured with a competitive protein binding method. […] After centrifugation and resuspension in medium, cells were plated in 24-well plates in 1.0 ml medium. […] The reaction was terminated by removing the supernatant, and cells were lysed upon the addition of 200 μL of 0.1 M ice-cold HCl. The cell lysate was resuspended and stored at −20° C. For determination of cyclic AMP production, protein kinase A (PKA) was incubated with [^3H]cyclic AMP (2 nM) in K2HPO4/EDTA buffer (K2HPO4, 150 mM; EDTA, 10 mM), 20 μL of the cell lysate, and 30 μL 0.1 M HCl or 50 μL of cyclic AMP solution (0-16 pmol/200 μL for standard curve). Bound radioactivity was separated by rapid filtration through Whatman GF/C filters and washed once with cold buffer. Bound radioactivity was measured by liquid scintillation spectrometry.
(§5) Forskolin (10 μM) was used to stimulate cyclic AMP levels.
Test [11] shares this target. As to the kind of experiment: Binding at human A3 adenosine receptor ([125I]I-AB-MECA, CHO cell membranes). Details: expressed in transfected cells; host or cells: CHO cells. The note with it: for Ki: [125I]I-AB-MECA, mean ± s.e.m., n = 3-5, read-out: Ki(hA3AR).
Method: as §1
The target of test [12] is T2, human A2B adenosine receptor (hA2BAR). As to the kind of experiment: Activation of human A2B adenosine receptor at 10 μM. The test is classed as cell-based. The following applies: CHO cells.
Test [13] has as its target T1, human A3 adenosine receptor.
Method: as §4, §5
Setting [14] is: data from literature (footnotes c, d, f, g); read-out: Ki(hA1AR); cited from earlier work.
[15] abbreviates: rat A3 AR; data from literature (footnotes c, d, f, i); unit nM printed in b194 only; read-out: Ki(rA3AR); cited from earlier work.
Where [16] appears, read: read-out: Ki(hA1AR); data from literature (footnotes c, d, f, g); cited from earlier work.
Where [17] appears, read: 10 μM; data from Ohno et al. (footnote c); cited from earlier work.
Setting [18] is: read-out: Ki(hA2AAR); data from literature (footnotes c, d, f, g); cited from earlier work.

As usually defined, the Ki is the equilibrium dissociation constant of an inhibitor or competing ligand from its target.

Like-named read-outs stand apart in the source and are kept apart here.

T5 sequence (P29274 whole entry): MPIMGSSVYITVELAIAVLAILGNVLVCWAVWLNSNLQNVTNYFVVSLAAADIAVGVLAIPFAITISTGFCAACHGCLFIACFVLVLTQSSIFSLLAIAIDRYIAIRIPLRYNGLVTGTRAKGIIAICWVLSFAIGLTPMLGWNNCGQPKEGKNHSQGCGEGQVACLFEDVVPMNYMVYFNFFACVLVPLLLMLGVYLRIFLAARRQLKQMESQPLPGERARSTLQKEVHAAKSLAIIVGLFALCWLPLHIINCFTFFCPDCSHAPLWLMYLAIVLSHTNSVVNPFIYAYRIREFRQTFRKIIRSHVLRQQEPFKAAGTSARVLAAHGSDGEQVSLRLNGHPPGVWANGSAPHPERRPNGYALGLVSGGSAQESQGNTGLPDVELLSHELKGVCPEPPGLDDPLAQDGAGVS

For the molecule `OCC1OC(n2cnc3c(NCc4cccc(I)c4)ncnc32)C(O)C1O` (centres unmarked) [Compound 1a], the “% Activation (hA3AR) at 10 μM” value in test [1] is 46 ± 8%. Further, in test [2], the “% Activation (hA2BAR) at 10 μM” value was 58%. Also, the Ki was 7.4 ± 1.7 nM on human A1 receptors [3] (setting [14]) and 9.5 ± 1.4 nM in [4] (setting [15]).
For the molecule `OCC1OC(n2cnc3c(NCc4cccc(I)c4)nc(Cl)nc32)C(O)C1O` (centres unmarked) [Compound 1b], the “% Activation (hA3AR) at 10 μM” value in test [1] is reported as 0%. Moreover, in [2], the “% Activation (hA2BAR) at 10 μM” value is 16%. Moreover, the Ki at human A1 receptors [3] (setting [16]) was 17 ± 2 nM; in [4] (read-out: Ki(rA3AR); rat A3 AR; data from literature (footnotes c, d, f, i); unit nM printed in b194 only; cited from earlier work), 2.7 ± 1.2 nM.
For the molecule `CNC(=O)[C@@]12C[C@@H]1[C@@H](n1cnc3c(NCc4cccc(I)c4)nc(Cl)nc31)[C@H](O)[C@@H]2O` [Compound 5, (1′S,2′R,3′S,4′R,5′S)-[4′-(2-chloro-6-{[(3-iodophenyl)methyl]amino}purin-9-yl)-2′,3′-dihydroxybicyclo[3.1.0]hexyl]-N-methylcarboxamide], the “% Activation (hA3AR) at 10 μM” value in [1] was 100^e %. The Ki in test [5] worked out at 1.1 ± 0.1 nM.
As for `CNc1ncnc2c1ncn2C1OC(CO)C(O)C1O` (centres unmarked) [Compound 6], the inhibitory constant (Ki) in test [6] was 9.3 ± 0.4 nM; on human A1 receptors [3] (setting [16]), 6000 ± 2000 nM; in test [4] (setting [15]), 6400 ± 1600 nM. Also, the “% Activation (hA2BAR) at 10 μM” value in test [2] is reported as 16%. Besides, on human A2A receptors [7] (setting [17]), the “% displ. at 10 μM (hA2AAR)” value is reported as 17%.
As for `CNc1nc(N)nc2c1ncn2C1OC(CO)C(O)C1O` (centres unmarked) [Compound 7], the Ki in test [6] is 39 ± 2 nM; on human A1 receptors [3] (setting [16]), 480 ± 20 nM; in test [4] (setting [15]) it was more than 10000 nM. In addition, the “% Activation (hA3AR) at 10 μM” value in [1] is 98 ± 3%. For the same molecule, the “% Activation (hA2BAR) at 10 μM” value in [2] is on record as 11%. Further, on human A2A receptors [7] (setting [17]), the “% displ. at 10 μM (hA2AAR)” value is recorded as 15%.
In the case of `OCC1OC(n2cnc3c(NC4CC4c4ccccc4)ncnc32)C(O)C1O` (centres unmarked) [Compound 10], the “% Activation (hA3AR) at 10 μM” value in [1] is reported as 101 ± 5%. Further, in [2], the “% Activation (hA2BAR) at 10 μM” value was 26%. The Ki on human A2A receptors [7] (data from literature (footnotes c, d, f, g); read-out: Ki(hA2AAR); cited from earlier work) is 2500 ± 700 nM; in test [4] (setting [15]), 400 ± 30 nM.
With `Cc1ccccc1CNc1ncnc2c1ncn2C1OC(CO)C(O)C1O` (centres unmarked) [Compound 11], the Ki in test [6] was 47 ± 11 nM; on human A1 receptors [3] (setting [16]), 39 ± 8 nM; on human A2A receptors [7] (setting [18]), 760 ± 110 nM; in test [4] (setting [15]), 38 ± 15 nM. In addition, the “% Activation (hA3AR) at 10 μM” value in test [1] is listed as 100 ± 3%.
Turning to `OCC1OC(n2cnc3c(NCc4cccnc4)ncnc32)C(O)C1O` (centres unmarked) [Compound 12], the Ki is 4.5 ± 1.1 nM in test [6], 42 ± 4 nM at human A1 receptors [3] (setting [14]), 2300 ± 120 nM on human A2A receptors [7] (setting [18]) and 290 ± 70 nM in [4] (setting [15]). Further, the “% Activation (hA3AR) at 10 μM” value in test [1] is listed as 100 ± 6%.
Consider `OCC1OC(n2cnc3c(NCC(c4ccccc4)c4ccccc4)ncnc32)C(O)C1O` (centres unmarked) [Compound 13], for which the “% Activation (hA3AR) at 10 μM” value in [1] is 0%. The “% Activation (hA2BAR) at 10 μM” value in test [2] is reported as 70%. The Ki in [4] (setting [15]) was 540 ± 200 nM.
For the molecule `CNC(=O)[C@@]12C[C@@H]1[C@@H](n1cnc3c(NC)nc(Cl)nc31)[C@H](O)[C@@H]2O` [Compound 14], the figures for the Ki (at human A1 receptors [8]; in [5]) were 2100 ± 1700 nM and 160 ± 30 nM, respectively. For the same molecule, the “% displ. at 10 μM (hA2AAR)” value at human A2A receptors [9] is on record as 6%. Moreover, in test [10], the “% Activation (hA3AR) at 10 μM” value stood at 104 ± 7%.
As for `CNC(=O)C12CC1C(n1cnc3c(NCc4cccc(Br)c4)nc(Cl)nc31)C(O)C2O` (stereo not drawn) [Compound 17, (1′S,2′R,3′S,4′S,5′S)-4′-[6-(3-Bromobenzylamino)-2-chloro-purin-9-yl]-2′,3′-dihydroxy-bicyclo[3.1.0]hexane-1′-carboxylic acid methyl amide], the Ki was found to be 0.38 nM in test [11], 270 ± 70 nM on human A1 receptors [8], 0.76 ± 0.08 nM in [5] and 1300 ± 100 nM on human A2A receptors [9]. In addition, the “% Activation (hA2BAR) at 10 μM” value in [12] is reported as 38%. In addition, in test [13], the “% Activation (hA3AR) at 10 μM” value was 100 ± 11%.
`CNC(=O)[C@@]12C[C@@H]1[C@H](n1cnc3c(NCc4cccc(Cl)c4)nc(Cl)nc31)[C@H](O)[C@@H]2O` [Compound 18, (1′S,2′R,3′S,4′S,5′S)-4′-[6-(3-Chlorobenzylamino)-2-chloro-purin-9-yl]-2′,3′-dihydroxy-bicyclo[3.1.0]hexane-1′-carboxylic acid methylamide]: in [12], the “% Activation (hA2BAR) at 10 μM” value came to 38%. For the same molecule, the Ki at human A1 receptors [8] stood at 260 ± 60 nM; in test [5], 1 ± 0.1 nM; at human A2A receptors [9] it was 2300 ± 100 nM.
With `CNC(=O)C12CC1C(n1cnc3c(NCc4cc(Cl)ccc4OCc4ccccc4)nc(Cl)nc31)C(O)C2O` (stereo not drawn) [Compound 24, (1′S,2′R,3′S,4′S,5′S)-4′-[6-(5-Chloro-2-benzyloxy-benzylamino)-2-chloro-purin-9-yl]-2′,3′-dihydroxy-bicyclo[3.1.0]hexane-1′-carboxylic acid methylamide], the Ki stood at 5.2 ± 1.3 nM in test [11], 1200 ± 200 nM at human A1 receptors [8], 11 ± 3 nM in test [5] and 850 ± 160 nM at human A2A receptors [9]. Also, in test [12], the “% Activation (hA2BAR) at 10 μM” value was found to be 49%. The “% Activation (hA3AR) at 10 μM” value in [10] is 110 ± 10%.
Turning to `CNC(=O)C12CC1C(n1cnc3c(NCc4cc(OC)ccc4OC)nc(Cl)nc31)C(O)C2O` (stereo not drawn) [Compound 26, (1′S,2′R,3′S,4′S,5′S)-4′-[6-(2,5-Dimethoxy-benzylamino)-2-chloro-purin-9-yl]-2′,3′-dihydroxy-bicyclo[3.1.0]hexane-1′-carboxylic acid methylamide], the Ki was 1.4 ± 0.2 nM in test [11], 1600 ± 200 nM at human A1 receptors [8] and 0.87 ± 0.24 nM in test [5]. Also, the “Selectivity for the human A3 adenosine receptor in comparison to the A1 adenosine receptor” value in test [11] (ratio of Ki hA1 / hA3) was determined as 1200 fold. Moreover, the “% Activation (hA2BAR) at 10 μM” value in test [12] is recorded as 0%. Also, at human A2A receptors [9], the “% displ. at 10 μM (hA2AAR)” value is listed as 52%. Further, the “% Activation (hA3AR) at 10 μM” value in [10] came out at 107 ± 10%.

The values are drawn from patent publication US7825126B2 (The United States of America as represented by the …, priority 2004, dated 2010).
